In brackets after ≈: the same amount, converted by molar mass.
Experiments:
[1] = system: androgen-dependent prostate cancer LNCaP cells; test: Neutral red uptake cell viability assay, LNCaP cells; type: cell-based; conditions: Homo sapiens, 48 h; for viability at 50 µg/mL: 50 μg/mL, vs DMSO control; for IC50: neutral red uptake
Protocol: (§1) Figure 4 Concentration-response curves showing the effect of Ferula penninervis methanolic root extract against gastrointestinal cancer cells (A), prostate cancer cells (B), skin cancer cells (C) and non-cancer cells (D) and the effect of isolated sesquiterpene lactones against prostate cancer LNCaP cells (E) and prostate epithelial PNT2 cells (F). Cells were seeded in 96-well plates (3 × 10^3/well) and treated with increasing concentrations of extract (12.5–200 μg/mL) or sesquiterpene lactones (3.125–50 μg/mL); after 48 h, the cell viability was evaluated using neutral red uptake assay. Data are expressed as percentage change in viability in comparison to the vehicle (DMSO) treated control group. Each point represents the mean ± S.E.M. of three independent experiments performed in triplicates.
Androgen-dependent prostate cancer (derived from lymph node metastasis) LNCaP (ATCC® CRL-1740), androgen-insensitive prostate cancer (derived from brain metastasis) DU145 (ATCC® HTB-81), androgen-insensitive prostate cancer (derived from bone metastasis) PC3 (ATCC® CRL-1435) and prostate epithelial PNT2 (ECACC® 95012613) cell lines were kindly provided by Dr. Vera Knäuper, School of Dentistry, Cardiff University (Cardiff, UK), whereas human colorectal carcinoma Caco-2 (ATCC® HTB-37) cell line was provided by Dr. Konrad Szychowski (University of Information Technology and Management, Rzeszów, Poland). Human gastric cancer (derived from liver metastasis) N87 (ATCC® CRL-5822), human colorectal cancer HT-29 (ATCC® HTB-38), human malignant melanoma A375 (ATCC CRL-1619), human squamous cell cancer SCC-15 (ATCC® CRL-1623) cell lines, murine melanoma B16F10 (ATCC® CRL-6475) and human skin BJ fibroblast (ATCC® CRL-2522) cell lines were purchased from LGC Standards (Łomianki, Poland), whilst immortalized human keratinocyte HaCaT cell lines were bought from Cell Lines Service (CLS) GmbH (Eppelheim, Germany).
LNCaP, PNT2 and N87 cells were grown in RPMI-1640 medium; PC3 cells were cultured in Ham’s F12; DU145, Caco-2 and BJ cells were maintained in EMEM. SCC-15 cell line was grown in DMEM:F12, whilst B16F10, HaCaT and HT-29 cell lines were maintained in DMEM. All conditioned media were supplemented with 10% FBS for all cell lines, except for Caco-2 cells which were grown in EMEM supplemented with 20% FBS. The cells were cultured at 37 °C in a humidified atmosphere with 5% CO2.
(§2) Neutral red uptake (NRU) assay was performed as described by Repetto et al.. Briefly, cells were seeded in 96-well plates (3 × 10^3 cells/well) and grown overnight. The cells were then treated with increasing concentrations of F. penninervis crude extract (12.5–200 µg/mL) and isolated compounds (3.125–50 µg/mL) or the positive control 5-FU (1 µg/mL). The control cells were grown in appropriate culture medium containing equal volume of the used solvent (DMSO). After 48 h, the cells were incubated for 3 h with neutral red solution (33 µg/mL) in conditioned medium containing 1% FBS. […] The absorbance of the released neutral red was measured at λ = 540 nm using FilterMax F5 microplate reader and corrected by the absorbance at λ = 620 nm. The mean measured value for the lysate from control cells was set as 100% cellular viability and used to calculate the percentage of viable cells following extracts treatment.
(§3) All experiments were performed in triplicate and the results were expressed as mean ± standard error of mean (SEM). […]

[2] = system: prostate epithelial PNT2 cells; test: Neutral red uptake cell viability assay, PNT2 cells; type: cell-based; conditions: 48 h
Protocol: as §1, with “triplicates. […]” for “triplicates.”
Neutral red uptake (NRU) assay was performed as described by Repetto et al.. […] The absorbance of the released neutral red was measured at λ = 540 nm using FilterMax F5 microplate reader and corrected by the absorbance at λ = 620 nm. The mean measured value for the lysate from control cells was set as 100% cellular viability and used to calculate the percentage of viable cells following extracts treatment.
as §3

[3] = system: αMSH-stimulated murine melanoma B16F10 cells; test: Melanin release in conditioned medium of αMSH-stimulated B16F10 cells; type: cell-based; conditions: αMSH 10 nM, 72 h; for melanin release in the medium: 10 μg/mL
Protocol: (§4) Figure 5 Influence of Ferula penninervis root extract and isolated sesquiterpene lactones on melanin release in conditioned medium (A), melanin content in cell lysate (B) and cell viability (C) in α-MSH-stimulated murine melanoma B16F10 cells. B16F10 cells were seeded in 6-well plates (0.5 × 10^5/well) and treated with extract (100 μg/mL) or sesquiterpene lactones (10 μg/mL); melanin production was stimulated with α-MSH (10 nM). Kojic acid (100 μg/mL) was used as positive control. After 72 h, the melanin release/content and cell viability were assessed. Data are expressed as the percentage of melanin release/content in comparison with α-MSH stimulated control cells (α-MSH+) (A,B) or as percentage change in viability in comparison to the vehicle (DMSO) treated control group (C). Each point represents the mean ± S.E.M. of three independent experiments performed in triplicates; # p < 0.001 vs. non-stimulated control cells (αMSH-); ** p < 0.01; *** p < 0.001 vs. αMSH+ cells.
B16F10 cells were plated in 6-well plates (0.5 × 10^5 cells/well) and grown overnight. The cells were treated with F. penninervis crude extract (100 µg/mL), isolated compounds (10 µg/mL) or the positive control kojic acid (100 μg/mL). Melanin production was stimulated with α-MSH (10 nM). Following 72 h, the conditioned medium and cell pellets were collected. Cell pellets were dissolved in 1 N NaOH and incubated for 2 h at 80 °C. Conditioned media and cell lysates were then transferred to a 96-well plate and the absorbance was measured at λ = 405 nm using FilterMax F5 microplate reader. The content of protein in cell lysates was establish using Bradford assay. The melanin released in the conditioned medium and the melanin content in cell lysates (μg melanin/mg protein) were calculated with the help synthetic melanin calibration curves. The melanin release/content was expressed as the percentage of melanin release/content in comparison with α-MSH stimulated control cells without the tested samples.

[4] = system: αMSH-stimulated murine melanoma B16F10 cells; test: Neutral red uptake viability at 72 h in αMSH-stimulated B16F10 cells; type: cell-based; conditions: extract 100 μg/mL, lactones 10 μg/mL, kojic acid 100 μg/mL, vs αMSH- cells
Protocol: To evaluate the effects of F. penninervis methanolic root extract and its isolated guaiane-type sesquiterpene lactones on the melanin synthesis and release, the melanin assay was carried out. For this purpose, the production of melanin in murine melanoma B16F10 cells was stimulated with αMSH. […] Furthermore, to exclude the possibility that the observed inhibitory effects on the melanin production might have resulted through a reduced number of viable cells, neutral red uptake assay at 72 h was performed (Figure 5C and Figure S17). […] To our knowledge, there are no previous studies reporting the melanin production inhibitory potential of Ferula genus or isolated constituents. Nevertheless, the anti-melanogenic effects of different phytochemicals were repeatedly evidenced in various cell-based assays.
as §4, §2

[5] = system: erythroleukemia K562 cells; design: method as in PMID 24320993; conditions: cited from earlier work
MCF-7 cells = system: MCF-7 cells; design: method as in PMID 24320993; conditions: cited from earlier work
B16F10 cells [6] = conditions: cited from earlier work
B16F10 cells [7] = system: B16F10 cells; design: method as in doi:10.1186/s13765-019-0468-7; conditions: 3 and 6 μM; cited from earlier work
[8] = system: αMSH-stimulated murine melanoma B16F10 cells; test: Melanin content in cell lysate of αMSH-stimulated B16F10 cells; type: cell-based; conditions: 100 μg/mL, αMSH 10 nM, 72 h
Protocol: as §4, with “Each point represents the mean ± S.E.M. of three independent experiments performed in triplicates; # p < 0.001 vs. non-stimulated control cells (αMSH-); ** p < 0.01; *** p < 0.001 vs. αMSH+ cells.” left out
B16F10 cells were plated in 6-well plates (0.5 × 10^5 cells/well) and grown overnight. […] Conditioned media and cell lysates were then transferred to a 96-well plate and the absorbance was measured at λ = 405 nm using FilterMax F5 microplate reader. […] The melanin released in the conditioned medium and the melanin content in cell lysates (μg melanin/mg protein) were calculated with the help synthetic melanin calibration curves. The melanin release/content was expressed as the percentage of melanin release/content in comparison with α-MSH stimulated control cells without the tested samples.

C=C(C)C(=O)O[C@H]1CC(C)=C2C(=O)C=C(C)[C@H]2[C@@H]2OC(=O)[C@@](C)(OC(C)=O)[C@@H]21 [olgin]
viability at 50 µg/mL [1]: 43.1 ± 3.52% | IC50 [1]: 31 µg/mL (≈ 79.9 µM) | effect on viability of PNT2 control cells ([2]; 3.125–50 μg/mL): did not significantly affect the viability | melanin release in the medium [3]: 40.67–65.48 % of αMSH+ control cells | viability of B16F10 cells [4]: without influencing the viability of B16F10 cells

CC1=CC(=O)C2=C(C)C[C@H](OC(=O)C(C)C)[C@@H]3[C@@H](OC(=O)[C@@]3(C)OC(=O)C(C)C)[C@H]12 [ferupennin Q, 2-oxo-8α,11α-diisobutyroyloxy-5βH,6αH,7αH-gua-1(10),3-diene-6,12-olide]
melanin release in the medium [3]: inactive

C=C(C)C(=O)O[C@H]1CC(C)=C2C(=O)C=C(C)[C@H]2[C@@H]2OC(=O)[C@@](C)(OC(=O)C(C)C)[C@@H]21 [oferin]
viability of B16F10 cells [4]: without influencing the viability of B16F10 cells

CC=C(C)C(=O)OC1CC(C)=C2C(=O)C=C(C)C2C2OC(=O)C(C)(OC(=O)C(C)C)C12 (stereo not drawn) [daucoguaianolactone F, daucoguainolactone F]
melanin release in the medium [3]: inactive

C=C(C)C(=O)O[C@H]1CC(C)=C2C(=O)C=C(C)[C@H]2[C@@H]2OC(=O)[C@@](C)(OC(=O)C(=C)C)[C@@H]21 [olgoferin]
viability of B16F10 cells [4]: without influencing the viability of B16F10 cells

C=C1C(=O)O[C@@H]2[C@H]1CC[C@]1(C)[C@H](OC(=O)/C(C)=C/C)C=CC(=C)[C@@H]21 [dehydrooopodin]
IC50 [5]: 5 µM | IC50 (MCF-7 cells): 15 µM

COc1cc(/C=C/C(=O)N2CCC=CC2=O)cc(OC)c1OC [Piperlongumine]
total melanin production (B16F10 cells [6]; 3 and 6 μM): significantly reduced the total melanin production | effect on cell growth (B16F10 cells [7]): no inhibitory effects on the cell growth

C[C@@H]1O[C@@H](O[C@@H]2[C@@H](O)[C@H](O)[C@@H](CO)O[C@H]2c2c(O)cc(O)c3c(=O)cc(-c4ccc(O)cc4)oc23)[C@H](O)[C@H](O)[C@H]1O [vitexin-2ʺ-O-rhamnoside]
decrease of intracellular melanin production compared to untreated cells (B16F10 cells [6]; 5 μM): threefold

C/C=C(/C)C(=O)O[C@H]1CC(C)=C2C(=O)C=C(C)[C@H]2[C@@H]2OC(=O)[C@@](C)(OC(C)=O)[C@@H]21 [laferin]
viability at 50 µg/mL [1]: 14.4 ± 1.69% | IC50 [1]: 23.3 µg/mL (≈ 57.8 µM) | cell survival ([2]; 50 µg/mL (highest tested concentration)): 53.85 ± 1.71% | viability of B16F10 cells [4]: without influencing the viability of B16F10 cells

O=c1[nH]cc(F)c(=O)[nH]1 [5-FU, 5-Fluorouracil, reference compound]
viability at 5 µg/mL ([1]; positive control at 5 μg/mL): 50.6 ± 3.28%

O=c1cc(CO)occ1O [kojic acid, reference compound]
melanin release in the conditioned medium ([3]; 100 μg/mL): 35.88 ± 3.45 % of αMSH+ control cells | melanin content in the cell lysate [8]: but not the melanin content

From article PMC8509705, “Liquid-Liquid Chromatography Separation of Guaiane-Type Sesquiterpene Lactones from Ferula penninervis Regel & Schmalh. and Evaluation of Their In Vitro Cytotoxic and Melanin Inhibitory Potential” (International Journal of Molecular Sciences, 2021)
